In patent US20220062245A1, “AGENT FOR IMPROVING INFERTILITY, RECURRENT MISCARRIAGE, AND STATE OF PREGNANCY” (priority 2018, published 2022):
Entries after “also recorded” stand apart in the source; their conditions may differ.

Key:
[1] = tested on: RPL (recurrent pregnancy loss) patient; conditions: cited from earlier work; for Outcome of earlier treatment: low-dose aspirin, heparin, prednisolone 5 mg/day, large-quantity γ-globulin 1 g/kg for 3 days, given in this order
[2] = tested on: patients with five consecutive incidences of RIF (repeated implantation failure); conditions: treated from two days before embryo transplantation to day of pregnancy test; daily dose by Th1/Th2 cell ratio; 16/25 versus 0% (0/17) untreated; cited from earlier work
[3] = tested on: Th1 and Th2 cells among CD4-positive cells; test: Analysis of Th1 cells and Th2 cells in patient blood by flow cytometry; assay type: in vivo, human
Protocol: Analysis of Th1 Cells and Th2 Cells
For the purpose of evaluating the baseline value of the Th1/Th2 cell ratio, a total of 10 ml of venous blood was collected. Th1 cells and Th2 cells were determined by detecting the production of intracellular interferon (IFN)-γ and IL-4.
Specific staining of lymphocytes was performed by incubating whole blood together with anti-CD4-PC5 or anti-CD8-PC5-conjugated monoclonal antibody (mAbs) (Beckman Coulter, Inc., Fullerton, Calif., USA). Red blood cells (RBCs) were removed by hemolysis (using FACS Lysing solution; Becton, Dickinson and Company, BD 134 Biosciences, Franklin Lake, N.J., USA), and lymphocytes were analyzed using flow cytometry (FACSCalibur; Becton, Dickinson and Company). Activated whole blood samples were surface-stained using anti-CD4-PC5-conjugate mAbs, and then RBC hemolysis and specific intracellular staining using Fast Immune (trademark) IFN-γ-FITC/IL-4-PE (Becton, Dickinson and Company) were carried out in sequence according to the manufacturer's instructions for use. Th1 cells were defined as CD4^+ lymphocytes accompanied by intracellular IFN-γ but not by intracellular IL-4. Th2 cells were detected as CD4^+ lymphocytes accompanied by intracellular IL-4 but not by intracellular IFN-γ. The ratio of intracellular IFN-γ-positive Th cells with respect to intracellular IL-4-positive Th cells was expressed as the Th1/Th2 cell ratio.

[4] = tested on: patient having a medical history of pregnancy-induced hypertensive nephropathy and HELLP syndrome; test: Prevention or delay of onset of pregnancy-induced hypertension syndrome, HELLP syndrome and eclampsia (Example 4, Table 1); assay type: in vivo, human
From the text: A patient is a person having a medical history of pregnancy-induced hypertensive nephropathy and HELLP syndrome. […] After the delivery, pulmonary edema, disseminated intravascular coagulation (DIC), and intraperitoneal bleeding, all of which are severe complications, were recognized, and the patient received treatments such as management using an artificial respirator, supplement of albumin, and blood component transfusion.
This time, in the hematologic examination findings before pregnancy, there were no abnormalities in all of the liver function, kidney function, and coagulation function, and abnormal findings were not observed in the examination items involved in infertility such as antiphospholipid antibody syndrome (anti-CL-IgG antibody, anti-CL-IgM antibody, anti-PS/PT antibody, anti-CL-β2GP1 antibody, LAC, anti-PE-IgG antibody, and anti-PE-IgM antibody), autoimmune diseases (anti-DNA antibody and antinuclear antibody), and coagulation dysfunction.
The circumstances of the first pregnancy and the pregnancy of this time are described in Table 1.
The ratio of Th1 (CD4g^+IFN-g^+)/Th2(CD4^+IL-4^+) in CD4-positive cells is 15.2/2.1 (normal value: less than 10.3), and clear immunological abnormalities were also not observed before pregnancy [Reference Literature 12b]; however, it was assumed that after implantation of a fertilized ovum, immunity of the mother's body would be activated, and immune abnormality between the mother's body and the fetus would suppress placental construction and functions thereof, causing fetal growth restriction and hypertension during pregnancy. Considering this, the patient was treated with 1 mg/day of tacrolimus from week 4 of pregnancy, for the purpose of controlling the immunity between the mother's body and the fetus after confirmation of pregnancy.
In this case, monotherapy was carried out with 1 mg/day of tacrolimus from the early stage of pregnancy, and combined treatment of low dose aspirin (LDA) intended for HDP prevention by bloodstream improvement was not carried out [Reference Literature 13b]. Regarding the pregnancy progress, there was no problem in the second trimester of pregnancy, where the patient developed HELLP syndrome in the previous pregnancy, and pregnancy progressed smoothly to the third trimester of pregnancy; however, the patient rapidly acquired HELLP syndrome similarly to the previous pregnancy, after week 33 of pregnancy.

[5] = tested on: patient suffering from a blood type incompatible pregnancy with negative maternal Rho (D) and positive fetal Rho (D); test: Pregnancy course and fetal/neonatal outcome in blood type incompatible pregnancy treated with tacrolimus (Example 1); assay type: in vivo, human
From the text: (§1) The patient is a person having blood type A. The patient suffering from a blood type incompatible pregnancy with negative maternal Rho (D) and positive fetal Rho (D) was subjected to the following treatments. That is, at the time of the first pregnancy, anti-D immunoglobulin was not administered during pregnancy, sensitization was effected before delivery, and the anti-D antibody titer at the time of delivery was 8-fold. In week 39, they gave birth by emergency cesarean section due to placental abruption of the upper placenta.
Two years later, […] hoped to have a second child but suffered from infecundity and was treated for sterility by in vitro fertilization; however, since the treatment was unsuccessful after five embryo transplantations, a close examination of the immune system was conducted. At that time, a marked increase (24.9) in the Th1/Th2 (Th1 32.4, Th2 1.3) ratio was recognized, the illness was judged as infecundity considered to be caused by an abnormality in the immune system, and a tacrolimus treatment was selected.
(§2) The anti-D antibody titer obtained immediately after the establishment of pregnancy was 4-fold; however, the titer reached 16-fold in week 24 and reached 32-fold in week 26 (FIG. 6, upper part). After that, migration of fetal antigens to the mother's body via the placenta was assumed to further increase, and preparation of plasmapheresis and fetal blood transfusion was initiated in preparation for a rapid increase in the antibody titer.
(§3) Furthermore, the blood flow velocity in the middle cerebral artery and the estimated body weight of the fetus were measured by fetal ultrasonography.

NK cells = test: NK cell activity during pregnancy (Example 4); assay type: in vivo, human; conditions: Example 4 patient during pregnancy, tacrolimus 1 mg/day; normal value 18% to 40%; FIG. 8
[6] = Concentration of tacrolimus in the cord blood by chemiluminescence immunoassay (ECLIA); assay type: in vivo, human; conditions: at delivery, mother on 5 mg/day oral
[7] = tested on: patient suffering from a blood type incompatible pregnancy with negative maternal Rho (D) and positive fetal Rho (D); test: Anti-D antibody titer by indirect Coombs test, Example 1 patient; assay type: in vivo, human; conditions: for Anti-D antibody titer: maternal blood, tacrolimus 4 mg/day oral
Protocol: Measurement of Anti-D Antibody Titer
The measurement is carried out by the indirect Coombs test. The indirect Coombs test is a test in which an anti-immunoglobulin antibody is added to a mixture of the blood serum of a patient and the blood of a healthy person to examine whether a hemagglutination reaction occurs (any irregular antibody present in the blood serum is detected) (for the Coombs test, see Nissan Women's Journal Vol. 59, No. 10, N-617-N-623).
as §1, §2, §3

[8] = pregnancy of this time, tacrolimus 1 mg/day, after parturition
[9] = pregnancy of this time, tacrolimus 1 mg/day, before parturition
[10] = tacrolimus 1 mg/day, after parturition
[11] = tacrolimus 1 mg/day, before parturition

heparin
Outcome of earlier treatment [1]: not successful

C[C@]12C=CC(=O)C=C1CC[C@@H]1[C@@H]2[C@@H](O)C[C@@]2(C)[C@H]1CC[C@]2(O)C(=O)CO [prednisolone]
Outcome of earlier treatment [1]: not successful

C=CCC1/C=C(\C)CC(C)CC(OC)C2OC(O)(C(=O)C(=O)N3CCCCC3C(=O)OC(/C(C)=C/C3CCC(O)C(OC)C3)C(C)C(O)CC1=O)C(C)CC2OC (stereo not drawn) [tacrolimus, 17-Allyl-1,14-dihydroxy-12-[2-(4-hydroxy-3-methoxycyclohexyl)-1-methylvinyl]-23,25-dimethoxy-13,19,21,27-tetramethyl-11,28-dioxa-4-azatricyclo[22.3.1.04,9]octacos-18-ene-2,3,10,16-tetraone]
Pregnancy progress ([1]; tacrolimus 2 mg/day continuously during pregnancy, no other treatments): favorable pregnancy progress | Clinical pregnancy rate [2]: 64.0% | Th1 ([3]; Example 1 patient, week 28 of pregnancy, on tacrolimus 4 mg/day): tendency of increase again | Ratio (proportions) of Th1 and Th2 cells among CD4-positive cells ([3]; Example 4 patient during pregnancy, tacrolimus 1 mg/day, FIG. 8): continuously decreased | Information on fetus: Fetal growth ([4]; pregnancy of this time, tacrolimus 1 mg/day from week 4): −1.9 SD | Information on fetus: Body weight ([4]; pregnancy of this time, tacrolimus 1 mg/day from week 4, at birth): 1490 g | Complications after parturition [4, 8]: None | Symptoms: Edema [4, 8]: Negligible | Symptoms: Hypertension [4, 8]: Temporary | Proteinuria initiated (weeks of pregnancy) [4, 9]: 33 weeks of pregnancy | Symptoms: Edema [4, 9]: Negligible | Delay of onset of HELLP syndrome compared to the previous pregnancy ([4]; single administration of tacrolimus 1 mg/day, previous pregnancy untreated): about 13 weeks | Proteinuria, edema, and hypertension during pregnancy progress ([4]; tacrolimus 1 mg/day monotherapy from week 4 of pregnancy): not observed until week 32 of pregnancy | Blood examination: ALT [4, 10]: 833 U/L | Blood examination: AST [4, 10]: 898 U/L | Blood examination: Cr [4, 10]: 0.59 mg/dL | Blood examination: Hb [4, 10]: 10.5 g/dL | Blood examination: LDH [4, 10]: 1995 U/L | Blood examination: Plt [4, 10]: 2.2 10^4/µL | Blood examination: WBC [4, 10]: 8220 µL⁻¹ | Blood examination: ALT [4, 11]: 71 U/L | Blood examination: AST [4, 11]: 65 U/L | Blood examination: Cr [4, 11]: 1 mg/dL | Blood examination: Hb [4, 11]: 11 g/dL | Blood examination: LDH [4, 11]: 316 U/L | Blood examination: Plt [4, 11]: 10 10^4/µL | Blood examination: WBC [4, 11]: 8280 µL⁻¹ | Body weight of child at birth ([5]; Example 1, tacrolimus 4 then 5 mg/day): 2834 g | Body weight of the fetus in the weeks of pregnancy ([5]; FIG. 7, estimated by fetal ultrasonography): smoothly increased | Malformations of the child ([5]; child exposed in utero to tacrolimus 4 to 5 mg/day): no external malformations or visceral malformations | Fetal anemia (blood flow velocity in the middle cerebral artery) ([5]; fetal ultrasonography during pregnancy, tacrolimus 4 then 5 mg/day): corresponded to the number of weeks; also recorded: without observing any fetal anemia; also recorded: fetal anemia was not developed during the entire course of pregnancy | Establishment of pregnancy by embryo transplantation ([5]; person, infecundity after five unsuccessful embryo transplantations, Th1/Th2 24.9, tacrolimus 4 mg/day oral): Pregnancy was established by a single embryo transplantation | Pregnancy progress in RhD incompatible pregnancy ([5]; without using plasma exchange, data not shown): satisfactory pregnancy progress was obtained | NK cell activity (NK cells): decreased in the second trimester of pregnancy and then conspicuously increased in the examination in week 32 of pregnancy; also recorded: decreased in the second trimester and then conspicuously increased from week 32 of pregnancy | Concentration of tacrolimus in the cord blood [6]: lower than or equal to the detection limit value | Anti-D antibody titer in the cord blood ([7]; cord blood at delivery): double | Anti-D antibody titer ([7]; immediately after the establishment of pregnancy): 4 fold | Anti-D antibody titer ([7]; week 24 of pregnancy): 16 fold | Anti-D antibody titer ([7]; week 26 of pregnancy): 32 fold

CC(=O)Oc1ccccc1C(=O)O [aspirin]
Outcome of earlier treatment [1]: not successful
